The record followed here is patent US9181266B2, “2-piperidin-1-yl-acetamide compounds for use as tankyrase inhibitors” (NOVARTIS AG, priority 2011, dated 2015).

For assay [1], the system named is Wnt ligand-induced signaling in HEK293 cells. The assay is described as follows: Wnt-responsive Super-TOpFlash (STF) luciferase reporter gene assay. It is filed as cell-based. As to conditions: Homo sapiens, Wnt3A condition medium. In short, it runs like this:
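HEK293 cells (8000/well, 5% FBS medium) treated with 20% mouse L-cell Wnt3A conditioned medium plus compounds in 10-point serial dilution; luciferase read next day. Inhibition calculated relative to Wnt3A-induced signal without compound and background without Wnt3A CM or compound.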
(In general: Reporter assays use an easily measured gene product as a stand-in for the process of interest.)

Assay [2] addresses tankyrase 2 protein PARP domain, TNKS2P (Homo sapiens (Human), UniProt Q9H2K2). The assay is described as follows: TNKS2 autoparsylation assay (LC/MS detection of nicotinamide). Conditions: read-out: TNKS2 AP IC50, 20 nM enzyme, 250 μM β-NAD+, 60 min.
Assay [3] relates to Axin2 protein in SW480 cells. Description: Cellular ELISA assay of Axin2 protein stabilization. As to conditions: Homo sapiens, 24 hrs, read-out: Axin AC50. It is filed as cell-based. The procedure, abridged:
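SW480 colorectal cells seeded overnight, treated with compound, then lysed. Axin2 in lysates measured by sandwich ELISA: anti-Axin2 capture antibody coated at 1 μg/ml (pH 9.2), lysate 2 h at room temperature, biotinylated anti-Axin2 detection 2 h, then streptavidin-HRP 30 min.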

The target of the next assay is Human PARP1 (Homo sapiens (Human), UniProt P09874). The assay is described as follows: PARP1 autoparsylation assay (LC/MS detection of nicotinamide). It counts as biochemical. Conditions: 20 nM enzyme, 250 μM β-NAD+, 60 min. Here is the method: (§1) The autoparsylation activity of the TNKS 1/2 or PARP1/2 enzymes was measured by the liquid chromatography-mass spectrometry (LC/MS) detection of nicotinamide as readout. Compound activity in inhibiting the TNKS and PARP autoparsylation was evaluated by IC50 measurements.
Chain of Human PARP1 (P09874 whole entry): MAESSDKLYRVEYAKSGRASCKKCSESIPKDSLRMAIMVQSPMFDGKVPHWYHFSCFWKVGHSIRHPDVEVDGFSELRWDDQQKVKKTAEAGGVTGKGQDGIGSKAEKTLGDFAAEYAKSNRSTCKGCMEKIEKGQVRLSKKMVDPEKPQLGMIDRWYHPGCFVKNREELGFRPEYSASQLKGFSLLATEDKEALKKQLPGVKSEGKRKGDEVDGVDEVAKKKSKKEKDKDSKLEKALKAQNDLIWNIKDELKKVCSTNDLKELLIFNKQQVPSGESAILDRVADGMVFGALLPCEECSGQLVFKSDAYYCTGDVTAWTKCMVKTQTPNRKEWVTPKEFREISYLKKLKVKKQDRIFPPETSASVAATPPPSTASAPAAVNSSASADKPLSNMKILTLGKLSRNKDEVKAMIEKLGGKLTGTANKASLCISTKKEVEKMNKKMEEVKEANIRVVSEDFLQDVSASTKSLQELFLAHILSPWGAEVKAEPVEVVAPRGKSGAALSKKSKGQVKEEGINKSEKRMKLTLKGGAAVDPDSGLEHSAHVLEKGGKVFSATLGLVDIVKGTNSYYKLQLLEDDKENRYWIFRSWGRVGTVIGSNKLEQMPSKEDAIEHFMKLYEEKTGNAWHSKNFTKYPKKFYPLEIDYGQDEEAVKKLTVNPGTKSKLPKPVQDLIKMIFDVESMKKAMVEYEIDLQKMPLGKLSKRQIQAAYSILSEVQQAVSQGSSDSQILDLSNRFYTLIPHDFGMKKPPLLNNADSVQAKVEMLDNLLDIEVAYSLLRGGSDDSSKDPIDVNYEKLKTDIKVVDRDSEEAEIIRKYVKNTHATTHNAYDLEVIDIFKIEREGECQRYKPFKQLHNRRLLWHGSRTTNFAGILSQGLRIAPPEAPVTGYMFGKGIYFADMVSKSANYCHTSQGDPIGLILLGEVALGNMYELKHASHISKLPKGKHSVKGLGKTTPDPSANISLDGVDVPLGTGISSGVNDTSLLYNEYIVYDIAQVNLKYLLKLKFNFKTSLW

For another assay, the target named is PARP2 (Mus musculus (Mouse), UniProt O88554). Description: PARP2 autoparsylation assay (LC/MS detection of nicotinamide). It is filed as biochemical. Conditions: 20 nM enzyme, 250 μM β-NAD+, 60 min. As for the experimental part:
as §1

Assay [4] deals with human tankyrase 1 PARP catalytic domain, TNKS1P (Homo sapiens (Human), UniProt O95271). Description: TNKS1 autoparsylation assay (LC/MS detection of nicotinamide). Conditions: read-out: TNKS1 AP IC50, 20 nM enzyme, 250 μM β-NAD+, 60 min.
Chain of human tankyrase 1 PARP catalytic domain, TNKS1P (O95271 1112-1317): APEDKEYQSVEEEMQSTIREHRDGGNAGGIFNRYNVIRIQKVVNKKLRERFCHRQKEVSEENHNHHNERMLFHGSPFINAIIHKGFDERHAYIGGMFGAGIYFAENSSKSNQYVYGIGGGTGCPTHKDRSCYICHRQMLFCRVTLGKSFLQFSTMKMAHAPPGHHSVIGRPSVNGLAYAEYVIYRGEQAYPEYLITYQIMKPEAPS
The test system of assay [5] is Non-small lung cancer ABC-1 cells. The assay is described as follows: Cellular proliferation assay (CellTiter-Glo). It is filed as cell-based. As to conditions: Homo sapiens, read-out: ABC-1 IC50. On the technique in general: ATP-based viability assays read luminescence as a measure of living cells.
Method: Cellular Proliferation Assay to Determine Compound Inhibition of Cancer Cell Growth
Viable cells were measured after 3 days of compound treatment using the CellTiter-Glo assay (Promega, G7570). Assay was performed following the manufacture protocol.

“And” between values parts separate entries of the source, which are not always exact repeats. Identical values can stand only once. Like-named read-outs stand apart in the source and are kept apart here.

Chain of tankyrase 2 protein PARP domain, TNKS2P (Q9H2K2 959-1164): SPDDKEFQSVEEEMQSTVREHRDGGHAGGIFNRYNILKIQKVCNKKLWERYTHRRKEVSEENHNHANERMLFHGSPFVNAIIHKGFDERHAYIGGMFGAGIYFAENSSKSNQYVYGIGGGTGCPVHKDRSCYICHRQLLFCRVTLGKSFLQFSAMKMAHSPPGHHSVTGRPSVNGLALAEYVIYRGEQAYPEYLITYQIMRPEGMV
Chain of PARP2 (O88554 whole entry): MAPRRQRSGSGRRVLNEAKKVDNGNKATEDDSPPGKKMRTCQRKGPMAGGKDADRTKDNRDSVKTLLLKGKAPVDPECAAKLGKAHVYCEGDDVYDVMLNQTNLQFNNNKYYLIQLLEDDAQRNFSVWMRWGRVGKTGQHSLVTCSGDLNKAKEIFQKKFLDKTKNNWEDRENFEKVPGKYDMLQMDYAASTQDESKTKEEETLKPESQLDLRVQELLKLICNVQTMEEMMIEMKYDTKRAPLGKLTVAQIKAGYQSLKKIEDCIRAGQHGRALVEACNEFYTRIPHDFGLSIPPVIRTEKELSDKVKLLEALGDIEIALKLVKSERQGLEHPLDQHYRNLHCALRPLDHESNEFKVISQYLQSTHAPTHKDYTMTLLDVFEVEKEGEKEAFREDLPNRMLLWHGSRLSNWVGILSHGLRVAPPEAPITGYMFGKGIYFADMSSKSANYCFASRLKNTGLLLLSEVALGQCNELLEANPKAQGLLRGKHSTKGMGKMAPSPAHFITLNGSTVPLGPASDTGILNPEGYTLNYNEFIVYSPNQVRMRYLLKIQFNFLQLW

The IC50 is the concentration needed to halve the response being measured. In general, AC50 refers to the midpoint of the concentration-response curve, whichever way the signal moves. Take `C[C@H](c1ccccc1)N(Cc1nc2c(c(=O)[nH]1)COCC2)C(=O)CN1CCC(C(=O)c2ccc(F)cc2)CC1` [Example 4, 2-[4-(4-Fluoro-benzoyl)-piperidin-1-yl]-N-(4-oxo-3,5,7,8-tetrahydro-4H-pyrano[4,3-c]pyrimidin-2-ylmethyl)-N—((R)-1-phenyl-ethyl)-acetamide]: the IC50 in assay [1] is 59 ± 17 nM; in assay [2], 16 ± 1 nM; against Human PARP1 it was more than 19000 nM; against PARP2 it was more than 19000 nM; in assay [4], 63 ± 5 nM. The AC50 in assay [3] was 363 ± 37 nM.
On to `COc1ccc(C(=O)C2CCN(CC(=O)N(Cc3nc4c(c(=O)[nH]3)CCCC4)CC3CC3)CC2)cc1` [Example 8, N-(Cyclopropylmethyl)-2-(4-(4-methoxybenzoyl)piperidin-1-yl)-N-((4-oxo-3,4,5,6,7,8-hexahydroquinazolin-2-yl)methyl)acetamide], for which the IC50 in assay [1] turned out to be 3 ± 1 nM; in assay [5] (ABC-1, 72 h), 22 nM; against PARP2 it was 9140 ± 210 nM. For the same compound, the AC50 in assay [3] came out at 13 ± 3 nM.
On to `COc1ccc(C(=O)C2CCN(CC(=O)NCc3nc4c(c(=O)[nH]3)CCCC4)CC2)cc1` [Example 9, 2-(4-(4-Methoxybenzoyl)piperidin-1-yl)-N-((4-oxo-3,4,5,6,7,8-hexahydroquinazolin-2-yl)methyl)acetamide], for which the IC50 in assay [1] was determined as 3 ± 3 nM; in assay [5] (ABC-1, 72 h), 41 nM; at PARP2 it was 243 ± 66 nM. Also, the AC50 in assay [3] is 9 ± 2 nM.
For `O=C(c1ccc(F)cc1)C1CCN(CC(=O)N(Cc2cccc(F)c2)Cc2nc3c(c(=O)[nH]2)COCC3)CC1` [Example 19, 2-(4-(4-Fluorobenzoyl)piperidin-1-yl)-N-(3-fluorobenzyl)-N-((4-oxo-4,5,7,8-tetrahydro-3H-pyrano[4,3-d]pyrimidin-2-yl)methyl)acetamide], the IC50 was 92 ± 77 nM in assay [1]; 21 ± 1 nM in assay [2]; more than 19000 nM at Human PARP1; more than 19000 nM at PARP2; 84 ± 7 nM in assay [4]. The AC50 in assay [3] was 779 ± 83 nM.
Take `C[C@@H](c1ccccc1)N(Cc1nc2c(c(=O)[nH]1)COCC2)C(=O)CN1CCC(C(=O)c2ccc(F)cc2)CC1` [Example 23, 2-[4-(4-Fluoro-benzoyl)-piperidin-1-yl]-N-(4-oxo-3,5,7,8-tetrahydro-4H-pyrano[4,3-d]pyrimidin-2-ylmethyl)-N—((S)-1-phenyl-ethyl)-acetamide]: the IC50 is 189 ± 76 nM in assay [1]; 50 ± 1 nM in assay [2]; more than 19000 nM on Human PARP1; more than 19000 nM against PARP2; 209 ± 3 nM in assay [4].
`CC[C@H](C)CN(Cc1nc2c(c(=O)[nH]1)COCC2)C(=O)CN1CCC(C(=O)c2ccc(F)cc2)CC1` [Example 25, 2-[4-(4-Fluoro-benzoyl)-piperidin-1-yl]-N—((S)-2-methyl-butyl)-N-(4-oxo-3,5,7,8-tetrahydro-4H-pyrano[4,3-d]pyrimidin-2-ylmethyl)-acetamide]: the IC50 is 30 ± 9 nM in assay [1]; 13 ± 1 nM in assay [2]; more than 19000 nM at Human PARP1; more than 19000 nM at PARP2; 37 ± 4 nM in assay [4]. Moreover, in assay [3], the AC50 stood at 179 ± 26 nM.
For the compound `C#CCN(Cc1nc2c(c(=O)[nH]1)COCC2)C(=O)CN1CCC(C(=O)c2ccc(F)cc2)CC1` [Example 27, 2-(4-(4-Fluorobenzoyl)piperidin-1-yl)-N-((4-oxo-4,5,7,8-tetrahydro-3H-pyrano[4,3-d]pyrimidin-2-yl)methyl)-N-(prop-2-ynyl)acetamide], the IC50 is 53 ± 45 nM in assay [1]; 14 ± 1 nM in assay [2]; more than 19000 nM on Human PARP1; more than 19000 nM on PARP2; 43 ± 1 nM in assay [4]. For the same compound, the AC50 in assay [3] came out at 3640 ± 660 nM.
For `O=C(c1ccc(F)cc1)C1CCN(CC(=O)N(Cc2nc3c(c(=O)[nH]2)COCC3)C[C@@H]2CCCO2)CC1` [Example 28, (S)-2-(4-(4-Fluorobenzoyl)piperidin-1-yl)-N-((4-oxo-4,5,7,8-tetrahydro-3H-pyrano[4,3-d]pyrimidin-2-yl)methyl)-N-((tetrahydrofuran-2-yl)methyl)acetamide], the IC50 in assay [1] is 15 ± 4 nM; in assay [2] it was 10 ± 1 nM; against Human PARP1, more than 19000 nM; at PARP2, more than 19000 nM; in assay [4], 24 ± 1 nM. The AC50 in assay [3] amounted to 101 ± 19 nM.
As to `N#CCN(Cc1nc2c(c(=O)[nH]1)COCC2)C(=O)CN1CCC(C(=O)c2ccc(F)cc2)CC1` [Example 43, N-Cyanomethyl-2-[4-(4-fluoro-benzoyl)-piperidin-1-yl]-N-(4-oxo-3,5,7,8-tetrahydro-4H-pyrano[4,3-d]pyrimidin-2-ylmethyl)-acetamide], the IC50 was 362 nM in assay [1]; > 19000 nM and 42900 nM at Human PARP1; more than 19000 nM in assay [4].
Consider `N#Cc1ccc(CN(Cc2nc3c(c(=O)[nH]2)COCC3)C(=O)CN2CCC(C(=O)c3ccc(F)cc3)CC2)s1` [Example 46, N-(5-Cyano-thiophen-2-ylmethyl)-2-[4-(4-fluoro-benzoyl)-piperidin-1-yl]-N-(4-oxo-3,5,7,8-tetrahydro-4H-pyrano[4,3-d]pyrimidin-2-ylmethyl)-acetamide], for which the IC50 was 36 ± 8 nM in assay [1]; 16 ± 1.4 nM in assay [2]; more than 19000 nM against Human PARP1; more than 19000 nM at PARP2; 53 ± 4 nM in assay [4]. Also, the AC50 in assay [3] is 275 ± 84 nM.
As to `O=C(CN1CCC(c2noc3cc(F)ccc23)CC1)NCc1nc2c(c(=O)[nH]1)COCC2` [Example 51, 2-(4-(6-Fluorobenzo[d]isoxazol-3-yl)piperidin-1-yl)-N-((4-oxo-4,5,7,8-tetrahydro-3H-pyrano[4,3-d]pyrimidin-2-yl)methyl)acetamide], the IC50 came out at 43 ± 2 nM in assay [2], 7630 ± 320 nM at Human PARP1, 3090 ± 390 nM on PARP2 and 207 ± 17 nM in assay [4].
As to `O=C(CN1CCC(n2c(=O)[nH]c3ccccc32)CC1)NCc1nc2c(c(=O)[nH]1)COCC2` [Example 82, 2-(4-(2-Oxo-2,3-dihydro-1H-benzo[d]imidazol-1-yl)piperidin-1-yl)-N-((4-oxo-4,5,7,8-tetrahydro-3H-pyrano[4,3-d]pyrimidin-2-yl)methyl)acetamide], the IC50 in assay [1] was determined as 787 ± 23 nM; in assay [2] it was 39 ± 3 nM; against Human PARP1, 32400 ± 4600 nM; on PARP2, 2900 ± 900 nM; in assay [4], 222 ± 2 nM.
For the compound `COc1ccc(C(=O)C2CCN(CC(=O)NCc3cc4c(c(=O)[nH]3)COCC4)CC2)cc1` [Example 97, 2-[4-(4-Methoxy-benzoyl)-piperidin-1-yl]-N-(8-oxo-3,4,7,8-tetrahydro-1H-pyrano[3,4-c]pyridin-6-ylmethyl)-acetamide], the IC50 in assay [2] was determined as 27 ± 1 nM; at Human PARP1, 7500 ± 400 nM; against PARP2, 1150 ± 9 nM; in assay [4], 100 ± 10 nM. Besides, the AC50 in assay [3] came to 266 ± 58 nM.
In the case of `CC(c1nc2c(c(=O)[nH]1)COCC2)N(C)C(=O)CN1CCC(C(=O)c2ccc(F)cc2)CC1` (centres unmarked) [Example 98, 2-(4-(4-Fluorobenzoyl)piperidin-1-yl)-N-methyl-N-(1-(4-oxo-4,5,7,8-tetrahydro-3H-pyrano[4,3-d]pyrimidin-2-yl)ethyl)acetamide], the IC50 was 17 ± 8 nM in assay [1]; 723 ± 10 nM in assay [2]; 258 nM in assay [5] (72 h, ABC-1 cells, 3 days of compound treatment); 4100 ± 500 nM in assay [4]. Moreover, the AC50 in assay [3] was found to be 72 ± 15 nM.
